In patent US20230391845A1, “GLP-1, GIP AND GLUCAGON RECEPTOR TRIPLE AGONISTS” (priority 2020, published 2023):
*1 amine or outer side, *2 acyl side, *3 side chain or, on linkers, in order; H or OH if unused. Where a SMILES comes first, the peptide text is derived from it. Side-chain parts run from the residue outwards. [ ]: non-standard residue; d: D form. The star is where a group is joined. X1 = O=C(O)CCCCCCCCCCCCCCCCCCC(=O)NCC1CCC(C(=O)*)CC1; γGlu = O=C(O)[C@H](CCC(=O)[*:2])N[*:1]; εLys = N[C@@H](CCCCN[*:1])C(=O)[*:2]; Aib = CC(C)(N)C(=O)O

What was measured:
[1] = glucagon: depending on the route of administration; cited from earlier work
mouse GIP receptor = biological target: T1, mouse GIP receptor (Mus musculus, UniProt Q0P543); test: In vitro functional potency (CRE luciferase; whole cells), mouse GIPR; assay type: cell-based; details: BHK cells expressing mouse GIP receptor
T1 construct: expressed in transfected cells; host or cells: BHK cells (parent line BHKTS13) containing CRE luciferase
T1 sequence (Q0P543 19-460): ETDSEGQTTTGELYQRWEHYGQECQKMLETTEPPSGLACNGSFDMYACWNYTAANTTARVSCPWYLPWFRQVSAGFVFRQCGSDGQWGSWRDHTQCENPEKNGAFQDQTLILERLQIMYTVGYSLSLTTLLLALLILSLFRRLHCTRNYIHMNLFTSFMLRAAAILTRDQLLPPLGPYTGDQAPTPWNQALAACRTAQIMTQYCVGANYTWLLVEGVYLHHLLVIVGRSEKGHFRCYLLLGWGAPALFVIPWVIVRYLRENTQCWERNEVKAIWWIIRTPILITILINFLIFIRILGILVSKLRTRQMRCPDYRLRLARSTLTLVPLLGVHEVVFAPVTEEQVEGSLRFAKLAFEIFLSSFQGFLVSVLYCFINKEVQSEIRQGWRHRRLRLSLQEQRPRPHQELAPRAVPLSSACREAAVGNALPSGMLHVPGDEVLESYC
Description: (§1) The purpose of this example is to test the functional activity, or potency, of the compounds in vitro at the human and mouse GLP-1, GIP, and Gcg receptors. The in vitro functional potency is the measure of target receptor activation in a whole cell assay.
(§2) In vitro functional potency was determined by measuring the response of the target receptor in a reporter gene assay in individual cell lines. The assay was performed in stably transfected BHK cell lines that expresses one of the following G-protein coupled receptors: human GLP-1 receptor, human GIP receptor, human Gcg receptor, mouse GLP-1 receptor, mouse GIP receptor, or mouse Gcg receptor; and where each cell line contains the DNA for the cAMP response element (CRE) coupled to a promoter and the gene for firefly luciferase (CRE luciferase). When the respective receptor is activated, it results in the production of cAMP, which in turn results in expression of the luciferase protein. […] The luminescence is measured as the readout for the assay. […]
(§3) The data from the microtiter plate reader was first regressed in an Excel in order to calculate the x-axis, log scale concentrations based on the individual test compound's stock concentration and the dilutions of the assay. […] A minimum of two replicates was measured for each sample. […]

mouse Gcg receptor = biological target: T2, mouse Gcg receptor (Mus musculus, UniProt Q61606); test: In vitro functional potency (CRE luciferase; whole cells), mouse GcgR; assay type: cell-based; details: BHK cells expressing mouse Gcg receptor
T2 construct: expressed in transfected cells; host or cells: BHK cells (parent line BHKTS13) containing CRE luciferase
Description: as §1, §2, §3

mouse GLP-1 receptor = biological target: T3, mouse GLP-1 receptor (Mus musculus, UniProt O35659); test: In vitro functional potency (CRE luciferase; whole cells), mouse GLP-1R; assay type: cell-based; details: BHK cells expressing mouse GLP-1 receptor
T3 construct: expressed in transfected cells; host or cells: BHK cells (parent line BHKTS13) containing CRE luciferase
T3 sequence (O35659 22-463): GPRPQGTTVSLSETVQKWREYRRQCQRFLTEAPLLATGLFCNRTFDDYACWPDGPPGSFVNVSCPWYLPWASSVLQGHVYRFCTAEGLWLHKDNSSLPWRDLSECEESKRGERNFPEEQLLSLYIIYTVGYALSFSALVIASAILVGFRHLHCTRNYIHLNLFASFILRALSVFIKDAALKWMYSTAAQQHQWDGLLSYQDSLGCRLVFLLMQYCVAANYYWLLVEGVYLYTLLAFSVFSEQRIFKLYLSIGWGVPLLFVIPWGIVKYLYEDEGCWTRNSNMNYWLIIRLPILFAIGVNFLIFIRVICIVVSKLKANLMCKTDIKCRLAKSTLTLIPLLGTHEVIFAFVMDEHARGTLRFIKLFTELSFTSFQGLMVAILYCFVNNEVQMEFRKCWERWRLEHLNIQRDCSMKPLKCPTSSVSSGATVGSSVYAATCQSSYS
Description: as §1, §2, §3

T2 sequence (Q61606 27-485): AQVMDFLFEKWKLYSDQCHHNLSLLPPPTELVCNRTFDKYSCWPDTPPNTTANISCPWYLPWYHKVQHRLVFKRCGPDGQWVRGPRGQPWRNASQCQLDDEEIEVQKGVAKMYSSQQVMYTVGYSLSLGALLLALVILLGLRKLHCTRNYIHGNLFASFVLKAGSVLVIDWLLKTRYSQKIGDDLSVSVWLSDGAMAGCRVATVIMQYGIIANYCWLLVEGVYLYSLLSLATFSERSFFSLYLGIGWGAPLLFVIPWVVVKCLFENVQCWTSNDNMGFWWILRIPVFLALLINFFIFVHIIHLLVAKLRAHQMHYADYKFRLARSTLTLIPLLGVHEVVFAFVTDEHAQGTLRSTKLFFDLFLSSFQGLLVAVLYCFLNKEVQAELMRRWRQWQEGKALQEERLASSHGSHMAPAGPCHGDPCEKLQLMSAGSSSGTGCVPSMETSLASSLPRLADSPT

CC[C@H](C)[C@H](NC(=O)[C@H](CO)NC(=O)[C@H](Cc1ccc(O)cc1)NC(=O)[C@H](CC(=O)O)NC(=O)[C@H](CO)NC(=O)[C@@H](NC(=O)[C@H](Cc1ccccc1)NC(=O)[C@@H](NC(=O)CNC(=O)[C@H](CCC(=O)O)NC(=O)[C@H](C)NC(=O)[C@@H](N)Cc1ccc(O)cc1)[C@@H](C)O)[C@@H](C)CC)C(=O)N[C@@H](C)C(=O)N[C@@H](CCSC)C(=O)N[C@@H](CC(=O)O)C(=O)N[C@@H](CCCCN)C(=O)N[C@H](C(=O)N[C@@H](Cc1c[nH]cn1)C(=O)N[C@@H](CCC(N)=O)C(=O)N[C@@H](CCC(N)=O)C(=O)N[C@@H](CC(=O)O)C(=O)N[C@@H](Cc1ccccc1)C(=O)N[C@H](C(=O)N[C@@H](CC(N)=O)C(=O)N[C@@H](Cc1c[nH]c2ccccc12)C(=O)N[C@@H](CC(C)C)C(=O)N[C@@H](CC(C)C)C(=O)N[C@@H](C)C(=O)N[C@@H](CCC(N)=O)C(=O)N[C@@H](CCCCN)C(=O)NCC(=O)N[C@@H](CCCCN)C(=O)N[C@@H](CCCCN)C(=O)N[C@@H](CC(N)=O)C(=O)N[C@@H](CC(=O)O)C(=O)N[C@@H](Cc1c[nH]c2ccccc12)C(=O)N[C@@H](CCCCN)C(=O)N[C@@H](Cc1c[nH]cn1)C(=O)N[C@@H](CC(N)=O)C(=O)N[C@H](C(=O)N[C@H](C(=O)N[C@@H](CCC(N)=O)C(=O)O)[C@@H](C)O)[C@@H](C)CC)C(C)C)[C@@H](C)CC [hGIP, Native Human GIP]
half-life as measured in man [1]: 5 to 7 min

CC[C@H](C)[C@H](NC(=O)[C@H](CO)NC(=O)[C@H](Cc1ccc(O)cc1)NC(=O)[C@H](CC(=O)O)NC(=O)[C@H](CO)NC(=O)[C@@H](NC(=O)[C@H](Cc1ccccc1)NC(=O)[C@@H](NC(=O)CNC(=O)[C@H](Cc1c[nH]cn1)NC(=O)C(C)(C)NC(=O)[C@@H](N)Cc1c[nH]cn1)[C@@H](C)O)[C@@H](C)O)C(=O)N[C@@H](Cc1ccc(O)cc1)C(=O)N[C@@H](CC(C)C)C(=O)N[C@@H](CCC(=O)O)C(=O)N[C@@H](CCCCNC(=O)[C@@H](N)CCCCNC(=O)[C@@H](N)CCCCNC(=O)CC[C@H](NC(=O)C1CCC(CNC(=O)CCCCCCCCCCCCCCCCCCC(=O)O)CC1)C(=O)O)C(=O)N[C@@H](CCC(N)=O)C(=O)N[C@@H](C)C(=O)N[C@@H](C)C(=O)NC(C)(C)C(=O)N[C@@H](CCC(=O)O)C(=O)N[C@@H](Cc1ccccc1)C(=O)N[C@H](C(=O)N[C@@H](CCC(N)=O)C(=O)N[C@@H](Cc1c[nH]c2ccccc12)C(=O)N[C@@H](CC(C)C)C(=O)N[C@@H](CC(C)C)C(=O)N[C@@H](CCC(=O)O)C(=O)NCC(=O)NCC(=O)N1CCC[C@H]1C(=O)N[C@@H](CO)C(=O)N[C@@H](CO)C(=O)NCC(=O)N[C@@H](C)C(=O)N1CCC[C@H]1C(=O)N1CCC[C@H]1C(=O)N1CCC[C@H]1C(=O)N[C@@H](CO)C(N)=O)C(C)C (stereo partly shown) [Compound No. 21] (H-H[Aib]HGTFTSDYSIYLEK([εLys-εLys-γGlu-X1])QAA[Aib]EFVQWLLEGGPSSGAPPPS-NH2; N-terminus assumed)
mGIPR CRE Luc EC50 (pM) (mouse GIP receptor): similar | mGcgR CRE Luc EC50 (pM) (mouse Gcg receptor): reduced | mGLP-1R CRE Luc EC50 (pM) (mouse GLP-1 receptor): similar
